Results taken from patent US11142524B2, “Substituted-3H-imidazo[4,5-c]pyridine and 1H-pyrrolo[2,3-c]pyridine series of novel Ectonucleotide Pyrophosphatase/Phosphodiesterase-1 (ENPP1) and stimulator for interferon genes (STING) modulators as cancer immunotherapeutics” (Stingray Therapeutics, Inc., priority 2018, dated 2021).
Read-outs that look alike come from different tables or passages of the source.

Experiments:
B16F10 tumor = assay: Anti-tumor efficacy in B16F10 (melanoma) syngeneic model; format: in vivo, C57BL/6 mice
Source text: Animals: Female C57BL/6 (4-6 week's age from Taconic).
The B16F10 cells were propagated in DMEM cell culture medium containing 10% Fetal Bovine Serum. Cells were harvested in logarithmic growth phase and implanted subcutaneously ([…]) in the lower abdomen of mice. Tumor growth was monitored daily and after the tumors had reached 80 to 100 mm3, mice were randomized into groups consisting of 8 animals per group. Animals were euthanized when tumors reached around 2000 mm^3 or treatment regime completed or 20% of body weight loss, or developed ulceration and necrosis. Upon termination, tumor samples and blood were collected and analyzed for biomarkers.

[1] = target: Recombinant Human ENPP-1 Protein (purified in-house) (Homo sapiens (Human), UniProt P22413); assay: ENPP1 Assay (TMP), Example 2; format: biochemical
Recombinant Human ENPP-1 Protein (purified in-house), sequence (P22413 whole entry, looked up): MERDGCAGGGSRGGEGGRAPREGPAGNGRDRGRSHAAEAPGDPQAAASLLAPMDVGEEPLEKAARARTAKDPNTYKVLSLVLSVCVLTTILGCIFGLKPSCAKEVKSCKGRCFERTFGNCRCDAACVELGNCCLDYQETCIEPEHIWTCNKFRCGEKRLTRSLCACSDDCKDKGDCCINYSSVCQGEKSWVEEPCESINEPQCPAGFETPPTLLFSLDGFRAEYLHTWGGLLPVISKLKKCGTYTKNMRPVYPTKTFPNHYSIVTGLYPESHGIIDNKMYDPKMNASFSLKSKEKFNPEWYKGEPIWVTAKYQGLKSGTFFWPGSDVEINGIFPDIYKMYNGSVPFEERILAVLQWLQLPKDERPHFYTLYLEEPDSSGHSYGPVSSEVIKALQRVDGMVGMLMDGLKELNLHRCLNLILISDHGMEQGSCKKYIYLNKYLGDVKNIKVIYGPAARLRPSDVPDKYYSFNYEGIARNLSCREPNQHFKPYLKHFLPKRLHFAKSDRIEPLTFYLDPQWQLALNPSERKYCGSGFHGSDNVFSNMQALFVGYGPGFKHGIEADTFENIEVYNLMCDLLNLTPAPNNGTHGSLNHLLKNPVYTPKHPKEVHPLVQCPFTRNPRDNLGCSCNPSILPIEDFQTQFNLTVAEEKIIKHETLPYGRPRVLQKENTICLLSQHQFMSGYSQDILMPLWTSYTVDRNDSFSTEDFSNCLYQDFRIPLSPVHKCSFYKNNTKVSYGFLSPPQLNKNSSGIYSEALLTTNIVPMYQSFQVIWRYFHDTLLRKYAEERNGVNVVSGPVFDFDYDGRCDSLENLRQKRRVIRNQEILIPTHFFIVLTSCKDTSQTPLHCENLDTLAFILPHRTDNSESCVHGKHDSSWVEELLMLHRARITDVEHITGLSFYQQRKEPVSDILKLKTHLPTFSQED
Description: Enzyme: 1 ng/μL Recombinant Human ENPP-1 Protein (purified in-house)—Assay Conc.: 5 ng/well of DMSO in 96-well clear assay plates.
(§1) A ten point serial dilution of drugs was prepared in 10× in assay buffer with the final assay concentrations starting at 10 μM, 3 μM, 1 μM, 0.3 μM . . . 0 μM. A dilution of DMSO was included as a control. The assay plate was set up as follows with each well in duplicate: 75 μL assay buffer+10 μL ENPP1 inhibitor or DMSO Dilutions+10 μL Substrate+5 μL Enzyme (5 ng). Both the enzyme and substrate were added to opposite sides of the well to ensure that there was no interaction until all wells had both components. The plate was then centrifuged gently for 10 seconds, followed by an incubation at 37° C. for 45 minutes. The reaction was quantified by measuring absorbance at 405 nm using the Envision Plate Reader.

UWB1.289 = assay: Chou-Talalay Synergy Study with Olaparib, UWB1.289; format: cell-based; settings: UWB1.289, 72 hours
Description: Cell Lines: MDA-MB-468 and UWB289.1 (ATCC). Cell Titer Glo (Promega cat #: G7572). 96-well TC treated, white assay plates
Cells were cultured according to ATCC tissue culture recommendations. Cells were plated in a 96-well tissue culture plate at a density of 1500 cells/well and allowed to settle overnight. The following day, both drugs were prepared at 10× concentration in the following ratios (Compound 22:Olaparib): 1:1, 10:1, and 1:10. The drugs were serially diluted to create an 8-point dose curve and 10 μL of each drug was added to the cells for a total volume of 100 μL/well. Plates were placed in a tissue culture incubator for 72 hours. Following incubation, each plate was treated with Cell Titer Glo according to vendor recommendation and luminescence was measured with the Envision Plate Reader. Data was analyzed using CalcuSyn software according to the methods described in Chou, Drug combination studies and their synergy quantification using the Chou-Talalay method, Cancer Res. 2010 Jan. 15; 70(2):440-6.
A Combination index (CI) value greater than 1 indicates […], equal to 1 indicates additive and less than 1 indicates synergy.

ENPP1 protein [2] = target: T1, ENPP1 protein (Homo sapiens (Human), UniProt P22413); assay: ENPP1 Inhibition Assay (thymidine 5′-monophosphate p-nitrophenol ester substrate); format: biochemical
Description: Assay Buffer: 1 mM CaCl2, 0.2 mM ZnCl2, 50 mM Tris, pH 9.0. Substrate: 8 mM Thymidine 5′-monophosphate p-nitrophenol ester sodium salt (Sigma Cat #T4510). Enzyme: 5 ng/L Recombinant Human ENPP-1 Protein (R&D Cat #6136-EN-010) in DMSO in 96-well clear assay plates
as §1, with “An eight” for “A ten”, “81” for “75”, “DMSO+5” for “DMSO Dilutions+10”, “Substrate+4” for “Substrate+5”, “Enzyme.” for “Enzyme (5 ng).”, “Envision.” for “Envision Plate Reader.”
Target sequence in this assay (P22413 whole entry, looked up, change not shown): as the sequence (P22413 whole entry, looked up) above
IC50 values are determined using GraphPad Prism 5 software. The data were entered as an X-Y plot into the software as percent inhibition for each concentration of the drug. The concentration values of the drug were log transformed and the nonlinear regression was carried out using the “sigmoidal dose-response (variable slope)” option within the GraphPad software to model the data and calculate IC50 values. The IC50 values reported are the concentration of drug at which 50% inhibition was reached.

ENPP1 protein [3] = target: T1, ENPP1 protein; assay: ENPP1 Thermal Shift Assay (Example 1); format: binding; settings: Table 2, FIG. 7, 100 μM drug, 1.0 μg ENPP1
Target sequence in this assay (P22413 whole entry, looked up, change not shown): as the sequence (P22413 whole entry, looked up) above

ENPP1 protein [4] = target: T1, ENPP1 protein; assay: ENPP1 enzymatic assay with TMP substrate (FIG. 8); format: biochemical; settings: 5.0 ng ENPP1, 150 μM TMP substrate
Description: FIG. 8 depicts results of a similar experiment. 5.0 ng of ENPP1 protein exposed to increasing doses of inhibitor (compound 78 or compound 107-02) for 10 minutes in solution, followed by the addition of 150 μM of TMP substrate. The assay was then incubated for 20 minutes and then read at 405 nm on the envision plate reader.
Target sequence in this assay (P22413 whole entry, looked up): as above

IC50 ([1]; FIG. 5A, TMP substrate, read-out: IC50): 0.271 µM
IC50 ([1]; Table 5, TMP substrate, read-out: ENPP1 (IC50 μM) TMP): 0.271 µM
inhibiting the activity of ENPP1 (ENPP1 protein [2]; FIG. 1): effective
IC50 (ENPP1 protein [2]; Table 1, FIG. 1, read-out: IC50): 79.7 nM
Tm (° C.) (ENPP1 protein [3]; NT 60.05): 61.16 °C
ΔTm at 100 µM (ENPP1 protein [3]; read-out: ΔTm (° C.)): 1.11 °C
enzymatic activity (ENPP1 protein [4]): significant decrease
Compound: COc1ccc(NC(=O)CSc2nc3c(C)c(C#N)ncc3[nH]2)cc1O [Compound 78, 2-((6-Cyano-7-methyl-3H-imidazo[4,5-c]pyridin-2-yl)thio)-N-(3-hydroxy-4-methoxyphenyl) acetamide]
B16F10 tumor growth inhibition (B16F10 tumor; 30 mg/kg dose (FIG. 6A / FIG. 13A)): 28%
B16F10 tumor growth inhibition (B16F10 tumor; FIG. 6B / FIG. 13B, dose and route not stated): 27%
ED50 Drug Concentration Compound 78 (UWB1.289): 48800 nM
